Laboratory results taken from paper PMC10115881, “Disrupting the α-synuclein-ESCRT interaction with a peptide inhibitor mitigates neurodegeneration in preclinical models of Parkinson’s disease” (Nature Communications, 2023).

How the values were obtained:
CD63 = CD63 levels in HEK293 cells; assay type: cell-based, human; details: A53T a-syn
Description: Infected or transfected cells were scraped from six-well dishes and lysed with lysis buffer (50 mM Tris-HCl pH 7.4, 1% Nonidet P-40, 150 mM NaCl, 1 mM EDTA, 1× protease inhibitor mixture (Sigma)) for 30 min at 4 °C. The insoluble pellet was removed following a 10,000 rpm spin for 5 min at 4 °C. Lysates were analyzed by SDS-PAGE/immunoblot using 4–20% Mini-PROTEAN Tris-glycine gels (Bio-Rad), transferred to polyvinylidene fluoride (PVDF) membranes, and blocked in 5% milk containing PBS-Tween-20 (0.1%) for 1 h. PVDF membranes were then incubated with specified primary antibodies followed by incubation with horseradish peroxidase-conjugated secondary antibodies (anti-mouse HRP-linked, Cell Signaling, catalog #7076, 1:5000; anti-rabbit HRP-linked, Cell Signaling, catalog #7074, 1:5000) and detected using enhanced chemiluminescence (GE Healthcare). Anti-a-syn antibody (clone 42) was obtained from BD Biosciences (catalog #610787, 1:1000). Anti-LAMP1 antibody was obtained from Abcam (catalog #ab24170, 1:500). Anti-beta-actin antibody was obtained from Cell Signaling (13E5) (catalog #4970, 1:1000). Anti-CD63 antibody was obtained from R&D Systems (catalog #MAB50482-SP, 1:1000).

Δa-syn(103–140) = assay: Truncated a-syn (103-140 lacking) HA immunofluorescence in rat cortical neurons; assay type: cell-based; details: a-syn lacking amino acids 103–140
Source text: Adeno-associated virus (AAV) of a 1/2 serotype was used to express A53T a-syn (AAV-A53T), a truncated version of A53T a-syn lacking amino acids 103–140 (Δa-syn(103–140)), and WT a-syn, fused to either the N-terminal half of YFP (AAV-V1S) or the C-terminal half of YFP (AAV-SV2), all under the control of the CAG promoter, a hybrid of the chicken beta-actin (CBA) promoter fused with the cytomegalovirus (CMV) immediate early enhancer sequence (GeneDetect Ltd.)[46].
Pregnant rats (E17) of the Sprague-Dawley strain were purchased from Envigo. Embryos were surgically removed from the mothers and cortices dissected in Hanks Balanced salt solution (Gibco). […]
After fixation, cells were permeabilized with 0.2% Triton-X-100 for 15 min, washed three times with PBS and then incubated with blocking solution (1% BSA, 22.52 mg/mL glycine, 0.1% Tween-20 in PBS or 0.4% saponin, 1% BSA, and 5% goat or donkey serum in PBS) for 1 h. […] Following another three washes with PBS, nuclei were counterstained with DAPI (ThermoFisher) and then coverslips were mounted on slides using Dako fluorescence mounting medium (Agilent) and sealed using clear nail varnish.

DEEIERQLKALG [PDpep1.3]
Effect on CD63 levels (CD63): return of CD63
Effect on truncated a-syn levels (Δa-syn(103–140)): did not reduce levels of this truncated a-syn
